Measured values taken from patent US6294521A, “Phosphosugars and phosphosugar-containing compounds having anti-inflammatory activity” (Australian National University, priority 1996, dated 2001).

How the values were obtained:
[1] = Inhibition of passively-transferred EAE in rats, parenteral treatment; assay type: in vivo, Lewis rats; settings: for inhibition of development of disease (EAE), in words: 8 hourly subcutaneous doses for seven days, 220 mg/kg/day (mannose-6-phosphate), 200 mg/kg/day (others); for % with clinical signs of EAE: n=5; for % with clinical signs of EAE / Mean Maximum clinical score: 220 mg/kg/day (mannose 6-P) or 200 mg/kg/day (others); for Mean Maximum clinical score: controls 2.8 (saline), 3.3 (PEG 200)
Protocol: International Patent PCT/AU89/00350 identified several simple phosphosugars which had potent anti-inflammatory activity against cell-mediated inflammatory diseases such as EAE. The novel mannose 6-phosphate derivatives of the present invention have improved pharmacodynamic and pharmacokinetic properties. Thus, some of these agents are effective against EAE when they are injected either subcutaneously or intraperitoneally in rats, whereas the parent substance, mannose-6-phosphate is ineffective when administered in this manner.
In this Example, some typical novel mannoside 6-phosphates of the present invention were compared with mannose-6-phosphate for their ability to inhibit the development of […] in rats. In this experiment, according to the method of Panitch and McFarlin (18), donor Lewis rats were immunised with 50 μg myelin basic protein in complete Freund's adjuvant and 10-12 days later the spleens from these rats were removed and made into a single cell suspension. Thus, these cells, 2×10^6 ml^-1, were cultured in RPMI medium with 5% fetal calf serum, 5×10^-5 M 2-mercaptoethanol, 2 mM L-glutamine plus 30 μg/ml penicillin, 50 μg/ml streptamycin sulfate. Con A was added at 2 μg ml^-1 and cultures were incubated at 37° C. in a humidified atmosphere of 5% CO2, 7% O2 and the balance N2. Cells were harvested after 72 hours, washed once wit Hanks balanced salt solution, and 70×10^6 viable cells were then transferred to naive Lewis rat recipients via a lateral tail vein in order to induce EAE.

[2] = Delayed-type hypersensitivity (DTH) footpad swelling, sheep red blood cell antigen; assay type: in vivo, CBA mice; settings: Table 2, q.i.d. s.c., n=5, mean, 220 mg/kg/day (mannose 6-phosphate) or 200 mg/kg/day (others); for inhibition at 220 mg/kg: Mus musculus, Erythrocyte; for % swelling: control = 100
[3] = experimental animals; EAE, adjuvant-induced arthritis, DTH; WO 90/01938; cited from earlier work
[4] = Contact sensitivity to picryl chloride, ear swelling; assay type: in vivo, CBA female mice; settings: n=5; for inhibition at 330 mg/kg/day: Mus musculus, sc, Table 3, 6 injections s.c.; for % swelling: Table 3, 330 mg/kg/day, 6 injections s.c., control = 100
Description: Contact sensitivity is a type of delayed hypersensitivity which ours following exposure to sensitising agents including low molecular weight reactive chemical entities such as dinitro chlorobenzene (DNCB) and picryl chloride (19,21) as well as the sensitising agents found in poison ivy and poison oak (19). In sensitised individuals, in those having previously been exposed to the sensitising agent, inflammatory leucocytes migrate from the blood stream into the area immediately beneath the affected tissue producing induration which is a cardinal characteristic of the delayed-type hypersensitivity reaction (21). Thus, contact sensitivity is a well recognised cell-mediated inflammatory response. In the experiment outlined below the novel mannoside 6-phosphates were compared with mannose-6-phosphate for their ability to inhibit contact sensitivity induced by picryl chloride.
In this experiment twenty CBA female mice were sensitised to picqyl chloride after the method of Enander et al., (22) by applying 200 μl of picryl chloride solution (0.5% in 95% ethanol) to an area (approximately 2 cm^2) of their shaved abdomens. Seven days following sensitisation these animals were divided into four groups of five mice which bad been treated with either mannose-6-phosphate (55 mg/kg), methyl mannoside 6-phosphate (330 mg/kg) or decyl mannoside 6-phosphate (55 mg/kg) or saline (control) 30 minutes before they were challenged by applying 100 μl of picryl chloride solution (1% in 95% ethanol) to both sides of their left ears. Their right ears (control) were treated with 100 μl of 95% ethanol. Three and one half hours following challenge a second injection of drug or saline was given and this was repeated four times at 4 hour intervals. Four hours following the last injection the mice were anaesthetised (ether) and the contact sensitivity determined by comparing the thickness of the picryl chloride treated ears with those of the control ears. As shown in Table 3 the novel mannoside phosphates inhibited accumulation of inflammatory cells in challenged ears more effectively than mannose-6-phosphate.

[5] = test system: mannose-6-phosphate receptor (insulin-like growth factor II or IGF-II receptor); assay: Competitive binding assay: uptake of fluorescein-labelled polysaccharide (PPME) by U937 monocytes; assay type: cell-based, human (U937 cell line); settings: uptake of fluoresceinated-PPME (100 μg/ml), U937 cells, 60 minutes at 37° C.; FIG. 1
Description: The novel mannoside 6-phosphates have similar affinities for the mannose-6-phosphate receptor (insulin-like growth factor II or IGF-II receptor) as the natural ligand, mannose-6-phosphate. In order to assess the binding of the novel mannoside 6-phosphates to the M6P receptor a competitive binding assay was used. In this assay a fluorescein-labelled, polysaccharide (PPME) which contains abundant mannose-6-phosphate groups, was used to detect uptake through the M6P receptor on human monocytes (U937 cell line). PPME was isolated and purified by the method of Bretthauer et al., (23) from the exopolysaccharide secreted by the yeast Pichia holstii. […]
The human monocyte cell line U937, which has a relatively high content of M6P receptors on its cell Surface (25), was obtained from the American Type Culture Collection (Rockville, Md.) and was maintained in RPMI 1640 medium (Gibco, Gaitersburg, Md.) supplemented with 2 mg/ml sodium bicarbonate, 0.2 mM glutamine, 30 μg/ml penicillin, 50 μg/ml streptamycin sulfate and 50 μg/ml neomycin sulfate and 10% foetal calf serum (FCS; Commonwealth Sarum Laboratories, Melbourne, Anstalia) at 37° C. […] Following incubations, the cells were washed twice with 10% FCS/RPMI and once with PBS and then fixed with 1% paraformaldehyde in PBS and analysed for fluorescence by flow cytometry. […]

[6] = Table 1, t.i.d. s.c., seven days

inhibition of binding of the natural ligand, in words [5]	SMILES	inhibition of development of disease (EAE), in words [1]	Mean Duration ([1]; Table 1, t.i.d. s.c., seven days, 220 mg/kg/day, saline control 4.1)	Mean day of onset ([1]; Table 1, t.i.d. s.c., seven days, 220 mg/kg/day, saline control 5.2)	% with clinical signs of EAE [1, 6]	Mean Maximum clinical score [1, 6]	effectiveness against EAE, in words ([1]; injected either subcutaneously or intraperitoneally in rats)	inhibition at 220 mg/kg [2]	% swelling [2]	anti-inflammatory activity against cell-mediated inflammatory diseases, in words [3]	inhibition at 330 mg/kg/day [4]	% swelling [4]
	O=P(O)(O)OC[C@H]1OC(O)[C@@H](O)[C@@H](O)[C@@H]1O (stereo partly drawn) [mannose-6-phosphate, D-mannose-6-phosphate, reference compound]	ineffective in inhibiting development of disease symptoms	4.0 days	5.2 days	100%	2.8	ineffective	20%	80%	shown to have anti-inflammatory activity	17%	83%
	CCCCCCCCCCCCCCCCOC1O[C@H](COP(=O)(O)O)[C@@H](O)[C@H](O)[C@@H]1O (stereo partly drawn) [hexadecyl mannoside 6-P, hexadecyl D-mannoside 6-phosphate]	completely inhibited the development of disease			0%	0		80%	20%			
effective inhibitor of binding	O=P(O)(O)OC[C@H]1OC(OCCCCCCOC2O[C@H](COP(=O)(O)O)[C@@H](O)[C@H](O)[C@@H]2O)[C@@H](O)[C@@H](O)[C@@H]1O (stereo partly drawn) [1,6-hexamethyene di(D-mannoside 6-phosphate)]											
	CO[C@H]1O[C@H](COP(=O)(O)O)[C@@H](O)[C@H](O)[C@@H]1O [methyl mannoside 6-P, Methyl α-D-mannoside 6-phosphate]										50%	50%
	CCCCCCCCCCOC1O[C@H](COP(=O)(O)O)[C@@H](O)[C@H](O)[C@@H]1O (stereo partly drawn) [decyl mannoside 6-P, Decyl D-mannoside 6-phosphate]	completely inhibited the development of disease			0%	0		70%	30%		77%	23%
	O=P(O)(O)OC[C@H]1OC(OCCCCCCCCCCCCCCCCOC2O[C@H](COP(=O)(O)O)[C@@H](O)[C@H](O)[C@@H]2O)[C@@H](O)[C@@H](O)[C@@H]1O (stereo partly drawn) [1,16-hexadecamethylene di(D-mannoside 6-phosphate)]	completely inhibited the development of disease			0%	0						
